Test results taken from publication PMC3139892, “Effective Control of Postprandial Glucose Level through Inhibition of Intestinal Alpha Glucosidase by Cymbopogon martinii (Roxb.)” (Evidence-based Complementary and Alternative Medicine : eCAM, 2011).

Biological target: T1, intestinal alpha glucosidase (maltase activity)
T1 construct: gene Mgam; mixture of intestinal alpha-glucosidases
Assay: maltose hydrolysis, glucose by glucose oxidase (GOD-PAP)
Assay type: biochemical, Rattus norvegicus
Settings: 25 mM maltose, 100 mM phosphate pH 7.2, 37°C, 30 min; mucosal enzyme preparation
Text: maltose hydrolysis, glucose by glucose oxidase (GOD-PAP) on intestinal alpha glucosidase (maltase activity)

## C[C@H]1O[C@H](O[C@H]2[C@H](O)[C@@H](O)[C@@H](O[C@H]3[C@H](O)[C@@H](O)C(O)O[C@@H]3CO)O[C@@H]2CO)[C@H](O)[C@@H](O)[C@@H]1N[C@H]1C=C(CO)[C@@H](O)[C@H](O)[C@H]1O (stereo partly shown) [acarbose]
  Acarbose / IC50: 60 µg/mL
